Assay [1] relates to PPARA downstream gene group. As to the kind of experiment: Expression level of PPARA downstream gene group in kidney organoid (LTL MACS, quantitative PCR). It counts as cell-based, human. Particulars: agonist singly at 1 μM, eight days from day 15; among Control, CP1 and 9cisRA1 groups. As for the experimental part: The kidney organoid was transferred to a centrifuge tube, and a cell dissociation solution (DPBS (+), 5 mg/mL Bacillus Licheniformis Protease (Sigma-Aldrich), 125 U/mL DNasc (Roche)) was added to the centrifuge tube. Up to 12 organoids were placed in one centrifuge tube. The centrifuge tube was incubated at 6° C. for 30 minutes. During the 30-minute incubation, pipetting was performed every five minutes to prepare a cell suspension containing cells separated from the organoids. To 1 mL of the obtained cell suspension, 4 mL of ice-cold diluted solution A (DPBS (−), 0.5% FBS, 2 mM EDTA, 125 U/mL DNase) was added. The centrifuge tube containing the diluted cell suspension was centrifuged at 300 rcf and 4° C. for 10 minutes, and the supernatant was removed. An ice-cooled diluted solution A was added to the precipitate for resuspension. […]
Total RNA was extracted from the obtained cell suspension containing LTL-positive proximal tubular cells with a Purelink RNA micro kit (Thermofisher Scientific Inc.). […] The synthesized cDNA was quantified by real-time PCR with TB Green® Premix Ex Taq™ II (Tli RNase H Plus) (TaKaRa Bio Inc.). Expression level analysis was performed using this quantitative PCR. […]

Assay [2] has as its system proximal tubule marker genes. As to the kind of experiment: Expression level of proximal tubule marker genes in kidney organoid (LTL MACS, quantitative PCR). It counts as cell-based, human. Particulars: for expression levels of almost all proximal tubule marker genes: agonist singly at 1 μM, eight days from day 15, among Control, CP1 and 9cisRA1 groups; for expression levels of maturation markers of proximal tubular cells: ACE2, AQP6, CUBN. As for the experimental part:
The kidney organoid was transferred to a centrifuge tube, and a cell dissociation solution (DPBS (+), 5 mg/mL Bacillus Licheniformis Protease (Sigma-Aldrich), 125 U/mL DNasc (Roche)) was added to the centrifuge tube. Up to 12 organoids were placed in one centrifuge tube. The centrifuge tube was incubated at 6° C. for 30 minutes. During the 30-minute incubation, pipetting was performed every five minutes to prepare a cell suspension containing cells separated from the organoids. To 1 mL of the obtained cell suspension, 4 mL of ice-cold diluted solution A (DPBS (−), 0.5% FBS, 2 mM EDTA, 125 U/mL DNase) was added. The centrifuge tube containing the diluted cell suspension was centrifuged at 300 rcf and 4° C. for 10 minutes, and the supernatant was removed. An ice-cooled diluted solution A was added to the precipitate for resuspension. The cell suspension was centrifuged again and the precipitate was resuspended in the diluted solution A. The obtained cell suspension was transferred to a tube with a 35 μm filter (Falcon) and passed through the filter to prepare a cell suspension containing single cells.
LTL-biotin (1:50) was added to the prepared cell suspension containing single cells and incubated at 4° C. for 15 minutes. Thereafter, the cell suspension was centrifuged at 300 rcf and 4° C. for five minutes, and the supernatant was removed. An ice-cooled diluted solution A was added to the precipitate for resuspension. Centrifuging the cell suspension and obtaining a cell suspension from the precipitate were performed two more times. Anti-biotin microBeads Ultra-Pure was added to the obtained cell suspension in the diluted solution A and incubated at 4° C. for 15 minutes. Thereafter, the cell suspension was centrifuged at 300 ref and 4° C. for five minutes, and the supernatant was removed. The ice-cooled diluted solution A was added to the precipitate for resuspension. This operation was repeated two more times. From the obtained cell suspension in the diluted solution A, cells to which LTL binds (also referred to as LTL-binding cells or LTL-positive cells) were obtained by a MACS method. More specifically, the cell suspension was applied to an MS column (Miltenyi Biotec B.V. & Co. KG) fixed in a magnetic field, and LTL-positive proximal tubular cells were obtained as a positive fraction.
Total RNA was extracted from the obtained cell suspension containing LTL-positive proximal tubular cells with a Purelink RNA micro kit (Thermofisher Scientific Inc.). Using total RNA obtained as a template, cDNA synthesis was performed using PrimeScript™ RTmastermix (Perfect Real Time) (Takara Bio Inc.). The synthesized cDNA was quantified by real-time PCR with TB Green® Premix Ex Taq™ II (Tli RNase H Plus) (TaKaRa Bio Inc.). Expression level analysis was performed using this quantitative PCR.
On the 15th day of differentiation induction, the induction medium C was replaced with STEMdiff APEL2 medium (0.3 μM CP775146, 1 μM 9-cis retinoic acid, 1% PFHM II, Antibiotic-Antimycotic), and the obtained early kidney organoids were further cultured for eight days (until the 23rd day of differentiation induction).
On the 23rd day of differentiation induction, the degree of maturation of the proximal tubule was examined. The degree of maturation was determined based on the expression level of maturation markers of proximal tubular cells in the kidney organoid by the MACS method with LTL.
In the step C, CP1 group was prepared by culturing, for eight days, the kidney organoid on the 15th day of differentiation induction in STEMdiff APEL2 medium (1 μM CP775146, 1% PFHM II, Antibiotic-Antimycotic), which is a medium obtained by removing retinoic acid from the induction medium C. […]

From US20240376435A1, “KIDNEY ORGANOID AND METHOD FOR PRODUCING SAME” (OTSUKA PHARMACEUTICAL CO., LTD., priority 2021, published 2024) come the findings set out here.

For `CC1=C(/C=C/C(C)=C\C=C\C(C)=C\C(=O)O)C(C)(C)CCC1` [9-cis retinoic acid], the “expression levels of almost all PPARA downstream gene groups” value in assay [1] is given as “No significant difference”. The “expression levels of almost all proximal tubule marker genes” value in assay [2] is on record as “No significant difference”.
`CC(C)c1ccc(CC(=O)N2CCC[C@@H](c3cccc(OC(C)(C)C(=O)O)c3)C2)cc1` [CP775146]: the “expression levels of almost all PPARA downstream gene groups” value in assay [1] is given as “No significant difference”. Further, the “expression levels of almost all proximal tubule marker genes” value in assay [2] is given as “No significant difference”.
`CCC(=O)NC[C@H](Cc1ccc(OCCc2nc(-c3ccccc3)oc2C)cc1)N/C(C)=C\C(=O)c1ccc(C(F)(F)F)cc1` [GW6471]: the “expression levels of maturation markers of proximal tubular cells” value in assay [2] (Comparative Example 1, PPARA antagonist at a predetermined concentration in step C, vs control, UGT2A3, AZGP1, BHMT, LRP2, ABCB1, APOA1, APOC3, FABP1) is “significantly decreased”; in assay [2] (Comparative Example 2, RXR antagonist in step C, vs control, UGT2A3, AZGP1, SLC39A4, BHMT, LRP2, ABCB1, APOA1, APOC3, CYP27A1, FABP1) it was “significantly decreased”. Moreover, the “expression levels of SLC39A4 and CYP27A1” value in assay [2] (Comparative Example 1, PPARA antagonist in step C, vs control) is “tendency for the expression levels of SLC39A4 (FIG. 12c) and CYP27A1 (FIG. 12l) to decrease”.
Regarding `Cc1cccc(Nc2cc(Cl)nc(SCC(=O)O)n2)c1C` [pirinic acid], in assay [2] (Example 9, pirinic acid alone in step C, n=3), the “expression of proximal tubule markers” value is listed as “increased”.
